Results on 5 compounds are retold here after US20220280625A1 (Northwestern University, priority 2019, published 2022).

Bridge positions count the residues as written; N and C are the ends. Square brackets hold non-standard residues; d marks the D form. Ends that are not written are not given here. Peptide text beside a SMILES is read from it. * marks the point of attachment. X1 = O=C1[C@@H]2[C@H](C(=O)N1CCCCCC(=O)*)[C@H]1C=C[C@@H]2C1; d(aIle) = CC[C@H](C)[C@@H](N)C(=O)O

The subject of data set [1] is elastase. The data set is described as follows: 20 μL of elastase (1 mM), 20 μL Tris buffer (250 mM Tris pH 7.2, 1500 mM NaCl, 500 mM CaCl2) and 140 μL of water. As to conditions: up to 550 min.
The test system of the next data set is choroidal angiogenesis. The data set is described as follows: Ex vivo choroidal sprouting assay. The data set is classed as cell-based. As to conditions: FIGS. 24B-24D. The protocol:
Ex vivo choroidal sprouting assay. As a first step towards determining the anti-angiogenic properties of the ABT898 PLPs, we performed an ex vivo choroidal sprouting assay. Briefly, eyes are enucleated, dissection is performed to remove the cornea, iris, lens, retina, and vitreous. The peripheral RPE-choroid-sclera complex is plated in Matrigel, angiogenesis develops spontaneously over Day 4-Day 7, and can be quantitated using reverse phase brightfield microscopy (FIG. 24A). ABT898 peptide had no effect upon choroidal angiogenesis (FIGS. 24B and 24C). Alternatively, ABT898 Ester and Amide PLPs, which are not hydrolysable, reduced angiogenesis by 24% and 81%, respectively. Cell penetrating peptides that are rich in arginine residues, aid the cellular penetration of cargo via endocytosis. In order to enhance the cellular penetration capacity and the solubility of the PLPs we modified the C-terminus with arginine moieties. […] Without wishing to be bound by any particular theory, we believe this is because the peptide alone is degraded in the Matrigel milieu. […] In addition, we performed a dose dependent analysis of growth area at Day 4 for treatment with ABT898 amide RR PLP, and the results are shown in FIG. 25.
Ex Vivo Choroidal Sprouting Assay: Anti-VEGF PLPs. […]

In data set [2] the target is T1, thermolysin (Bacillus thermoproteolyticus, UniProt P00800).
T1 sequence (P00800 233-548): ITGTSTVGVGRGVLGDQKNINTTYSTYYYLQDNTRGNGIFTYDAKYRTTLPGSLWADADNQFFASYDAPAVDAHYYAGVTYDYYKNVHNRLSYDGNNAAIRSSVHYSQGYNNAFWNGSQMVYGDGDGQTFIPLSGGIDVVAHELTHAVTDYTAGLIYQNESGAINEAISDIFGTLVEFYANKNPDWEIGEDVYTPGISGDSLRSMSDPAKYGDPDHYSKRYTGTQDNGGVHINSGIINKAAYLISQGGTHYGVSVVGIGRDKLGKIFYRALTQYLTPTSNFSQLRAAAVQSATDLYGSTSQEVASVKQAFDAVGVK
The data set is described as follows: Enzyme degradation kinetics of ABT898 peptide and PLP with thermolysin (HPLC). The data set is classed as in vitro ADME. The note with it: 200 μM stock, thermolysin 0.1 μM, over 450 min; PLP = AR PLP (FIG. 26A). The protocol: FIGS. 26A-26B. Enzyme degradation kinetics and BLI assay. FIG. 26A. Percent enzymatic cleavage of peptide and PLP (AR PLP) upon the treatment of thermolysin (peptide:enzyme=2000:1) was monitored by HPLC over 450 min. FIG. 26B. Bio-layer interferometry data measuring the binding constant between AR PLP and CD36 receptor.
Enzyme Degradation Kinetics. An important feature of the PLP platform is that the globular structure of peptides arranged on a polymeric scaffold impart high proteolytic resistance. We performed an enzyme resistance assay to confirm that the PLP is resistant to proteolysis as compared to the peptide alone. Both peptide and PLP stock solutions (200 μM) were treated with thermolysin enzyme (0.1 μM) and their degradation profiles were monitored using high performance liquid chromatography (HPLC). […] We calculated the area under the peak at each time point to construct the percent cleaved and plotted it against time for both peptide and PLP (FIG. 26A).

Data set [3] has as its system elastase. In words: in vitro. The note with it: isolated enzyme elastase, pH 7.2.
Experimental: Enzymatic cleavage. Elastase was chosen as a model protease since it can cleave the three glycine fragment for easy recognition of cleavage product which is also similar to the natural initial cleavage product in serum. Remaining peptide percentage was measured by the ratio between the area under the curve at each time point and the area under the curve of the first time point.
Twenty microliters (20 μL) of elastase (1 mM), 20 μL of monomer (FIG. 9A) or polymer (FIG. 9B) (2 mM), 20 μL Tris buffer (250 mM Tris pH 7.2, 1500 mM NaCl, 500 mM CaCl2)) and 140 μL of water were added to a HPLC vial and loaded in the autosampler carousel and a sample immediately taken for injection at 1 min. Subsequently, the reaction was monitored via RP-HPLC (10-80% buffer B) with an injection every 50 minutes following the initial injection.
The ratio of the AUC at each time point relative to the first time point is plotted.
A short description of data set [4]: Systolic blood pressure by tail-cuff system in mice. The data set is classed as in vivo, C57BL/6 mice. As to conditions: intraperitoneal injection, measured for 20 minutes. The protocol: Healthy C57BL/6 mice were injected with either terlipressin peptide or terlipressin PLP and the systolic blood pressure was measured over time by employing a tail-cuff system (CODA™). The mice were anesthetized with ketamine and placed in restraints over a heated pad. Following 5 minutes of background measurements, the drugs were administrated by intraperitoneal injection (IP) and the measurements continued for another 20 minutes (limited by the effect of ketamine). The delta BP was measured and plotted as a function of time.

The conditions of data set [5]: human, in vivo; cited from earlier work.
Data set [6] addresses T1, thermolysin.
Experimental: To discern the relationship between backbone structure and peptide stability against proteolysis, enzyme kinetics of each peptide brush polymer with different backbones were measured in PBS buffer with added protease (i.e., thermolysin).
For enzyme-triggered cleavage experiments, the molar ratio of thermolysin to peptide was set to 1:200. Moreover, the temperature was set to 37° C. […] Then thermolysin (0.1 mg, 3.0 nmol, 1 equiv.) was added into the polymer solution which was stirred in a preheated oil bath at 37° C.

In the case of GGGCYFQNCPKG, in the data set with elastase [1], the cleaved bond entry was “G-C”. Regarding “ABT898 peptide: synthetic peptide GVi(allo)SQIRP which mimics the TSP1 type-1 repeat (GV[d(aIle)]SQIRP) [reference compound]”, the “effect upon choroidal angiogenesis” value in the data set on choroidal angiogenesis is recorded as “no effect”. Also, the “degradation by thermolysin (HPLC peak over time)” value in the data set with thermolysin [2] is recorded as “rapid degradation”.

Compound `NCCCC[C@H](NC(=O)[C@@H]1CCCN1C(=O)[C@@H]1CSSC[C@H](NC(=O)CNC(=O)CNC(=O)CNC(=O)CCCCCN2C(=O)[C@@H]3[C@H](C2=O)[C@H]2C=C[C@@H]3C2)C(=O)N[C@@H](Cc2ccc(O)cc2)C(=O)N[C@@H](Cc2ccccc2)C(=O)N[C@@H](CCC(N)=O)C(=O)N[C@@H](CC(N)=O)C(=O)N1)C(=O)NCC(N)=O` [terlipressin peptide monomer] (X1-GGGCYFQNCPKG-NH2; disulfide 4-9) yielded an amount remaining at 550 min, 0.2 mM in the data set with elastase [3] of around 50%. On to `NCCCC[C@H](NC(=O)[C@@H]1CCCN1C(=O)[C@@H]1CSSC[C@H](NC(=O)CNC(=O)CNC(=O)CN)C(=O)N[C@@H](Cc2ccc(O)cc2)C(=O)N[C@@H](Cc2ccccc2)C(=O)N[C@@H](CCC(N)=O)C(=O)N[C@@H](CC(N)=O)C(=O)N1)C(=O)NCC(N)=O` [terlipressin, Terlipressin] (H-GGGCYFQNCPKG-NH2; disulfide 4-9), for which the “change in systolic blood pressure over time (delta BP)” value in data set [4] is “immediate and very large increase in blood pressure, which dropped rapidly in a manner of few minutes”. In data set [5], the distribution half-life was 8 min and the elimination half-life is 6 min. For the compound “poly(PepNorIm15): peptide brush polymer of GPLGLAGGWGERDGS norbornene dicarboxyimide monomer, DP 15 (also: peptide is a side chain of a norbornene dicarboxyimide brush polymer, DP 15)”, in the data set with thermolysin [6], the “proteolytic stability against thermolysin” value is listed as “demonstrated resistance to proteolysis”.
